Results as given in patent US20180148418A1, “AMIDO-SUBSTITUTED CYCLOHEXANE DERIVATIVES” (Bayer Pharma Aktiengesellschaft, priority 2015, published 2018).

Legend:
[1] = test system: wildtype Wnt signaling cascade; test: HEK293 TOP assay (Super TopFlash luciferase reporter, Wnt-3a stimulated); type: cell-based; conditions: Homo sapiens, HEK293, 16 h, HEK293 TOP reporter cells, Wnt3a at EC50, 16 hours
Procedure, shortened: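 Compound series (50 μM down to 15 nM, 3.16-fold) diluted from DMSO 50-fold into CAFTY buffer, pH 7.4, 2 mM Ca^2+, 0.01% BSA, applied to Wnt-3a-stimulated HEK293 TopFlash and FOP reporter lines in parallel. Cells seeded 10000/well 24 h before; luciferase signal measured.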

[2] = molecular target: T1, TNKS2 (Homo sapiens, UniProt Q9H2K2); test: TNKS2 Assay B (auto-parsylation, [3H]-NAD+ SPA); type: biochemical; conditions: 6 nM TNKS2, auto-parsylation, over night at room temperature
T1 construct: purchased BPS Bioscience, San Diego, USA 80572 (TNKS2 Histone Ribosylation Assay Kit)
T1 sequence (Q9H2K2 1-1166): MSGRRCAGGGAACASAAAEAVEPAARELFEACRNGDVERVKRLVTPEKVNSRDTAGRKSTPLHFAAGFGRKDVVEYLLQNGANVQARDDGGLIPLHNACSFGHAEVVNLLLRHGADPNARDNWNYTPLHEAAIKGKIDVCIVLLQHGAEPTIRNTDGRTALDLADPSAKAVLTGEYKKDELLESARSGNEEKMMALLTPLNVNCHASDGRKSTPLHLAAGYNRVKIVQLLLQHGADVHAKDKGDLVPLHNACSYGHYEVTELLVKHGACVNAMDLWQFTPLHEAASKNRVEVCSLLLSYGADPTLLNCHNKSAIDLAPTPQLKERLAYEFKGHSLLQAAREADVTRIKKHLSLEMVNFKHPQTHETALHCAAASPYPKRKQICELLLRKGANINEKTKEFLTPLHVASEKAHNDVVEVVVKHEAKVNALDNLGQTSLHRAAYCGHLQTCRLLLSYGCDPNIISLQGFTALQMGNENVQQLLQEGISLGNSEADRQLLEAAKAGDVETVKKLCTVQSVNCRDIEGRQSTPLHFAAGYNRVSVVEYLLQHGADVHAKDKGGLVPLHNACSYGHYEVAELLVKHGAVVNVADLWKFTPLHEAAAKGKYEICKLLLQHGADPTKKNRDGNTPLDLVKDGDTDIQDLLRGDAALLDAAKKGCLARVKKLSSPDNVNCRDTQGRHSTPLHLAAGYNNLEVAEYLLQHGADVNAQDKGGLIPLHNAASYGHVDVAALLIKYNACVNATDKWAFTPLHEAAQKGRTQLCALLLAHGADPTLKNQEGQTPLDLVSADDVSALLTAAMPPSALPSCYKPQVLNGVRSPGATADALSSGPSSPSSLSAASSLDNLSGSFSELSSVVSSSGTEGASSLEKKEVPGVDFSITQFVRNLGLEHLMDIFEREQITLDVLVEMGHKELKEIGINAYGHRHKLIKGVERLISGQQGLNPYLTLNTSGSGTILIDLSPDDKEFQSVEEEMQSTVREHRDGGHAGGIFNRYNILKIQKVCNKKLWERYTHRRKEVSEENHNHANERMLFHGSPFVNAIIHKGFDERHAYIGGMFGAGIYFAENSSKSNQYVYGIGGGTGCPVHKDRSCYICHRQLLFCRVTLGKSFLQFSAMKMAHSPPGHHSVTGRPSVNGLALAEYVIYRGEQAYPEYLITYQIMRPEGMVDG

SMILES	IC50 [1]	IC50 [2]
CNC(=O)c1nc[nH]c1C(=O)N[C@H]1CC[C@H](C(=O)Nc2ccncc2Cl)CC1 [Example 11, N^5-{trans-4-[(3-chloropyridin-4-yl)carbamoyl]cyclohexyl}-N^4-methyl-1H-imidazole-4,5-dicarboxamide]	140 nM	210 nM
CN(C)C(=O)c1nc[nH]c1C(=O)N[C@H]1CC[C@H](C(=O)Nc2ccc(F)cc2Cl)CC1 [Example 16, N^5-{trans-4-[(2-chloro-4-fluorophenyl)carbamoyl]cyclohexyl}-N^4,N^4-dimethyl-1H-imidazole-4,5-dicarboxamide]	1400 nM	1200 nM
O=C(NCCO)c1nc[nH]c1C(=O)N[C@H]1CC[C@H](C(=O)Nc2ccc(F)cc2Cl)CC1 [Example 18, N^5-{trans-4-[(2-chloro-4-fluorophenyl)carbamoyl]cyclohexyl}-N^4-(2-hydroxyethyl)-1H-imidazole-4,5-dicarboxamide]	150 nM	120 nM
CC(C)NC(=O)c1nc[nH]c1C(=O)N[C@H]1CC[C@H](C(=O)Nc2ccc(F)cc2Cl)CC1 [Example 20, N^5-{trans-4-[(2-chloro-4-fluorophenyl)carbamoyl]cyclohexyl}-N^4-isopropyl-1H-imidazole-4,5-dicarboxamide]	220 nM	130 nM
O=C(N[C@H]1CC[C@@]2(CCN(c3ccc(F)cc3Cl)C2=O)CC1)c1[nH]cnc1C(=O)N1CCN(CC(F)(F)F)CC1 [Example 167, N-[(trans)-2-(2-chloro-4-fluorophenyl)-1-oxo-2-azaspiro[4.5]dec-8-yl]-4-{[4-(2,2,2-trifluoroethyl)piperazin-1-yl]carbonyl}-1H-imidazole-5-carboxamide]	130 nM	270 nM
CNC(=O)c1nc[nH]c1C(=O)N[C@H]1CC[C@H](C(=O)Nc2cc(C(C)(C)O)ccc2Cl)CC1 [Example 170, N^5-(trans-4-{[2-chloro-5-(2-hydroxypropan-2-yl)phenyl]carbamoyl}cyclohexyl)-N^4-methyl-1H-imidazole-4,5-dicarboxamide]	2000 nM	1500 nM
CNC(=O)c1nc[nH]c1C(=O)N[C@H]1CC[C@H](C(=O)N(C)c2ccccc2)CC1 [Example 171, N^4-methyl-N^5-{trans-4-[methyl(phenyl)carbamoyl]cyclohexyl}-1H-imidazole-4,5-dicarboxamide]	450 nM	150 nM
CNC(=O)c1nc[nH]c1C(=O)N[C@H]1CC[C@H](C(=O)N(C)c2ccc(F)cc2)CC1 [Example 172, N^5-{trans-4-[(4-fluorophenyl)(methyl)carbamoyl]cyclohexyl}-N^4-methyl-1H-imidazole-4,5-dicarboxamide]	410 nM	510 nM
CNC(=O)c1nc[nH]c1C(=O)N[C@H]1CC[C@H](C(=O)N(C)c2ccc(F)cc2Cl)CC1 [Example 173, N^5-{trans-4-[(2-chloro-4-fluorophenyl)(methyl)carbamoyl]cyclohexyl}-N^4-methyl-1H-imidazole-4,5-dicarboxamide]	190 nM	180 nM
Cc1cc(N(C)C(=O)[C@H]2CC[C@H](NC(=O)c3cnn4cccnc34)CC2)c(Cl)cc1F [Example 176, N-{trans-4-[(2-chloro-4-fluoro-5-methylphenyl)(methyl)carbamoyl]cyclohexyl}pyrazolo[1,5-a]pyrimidine-3-carboxamide]	350 nM	130 nM
Cc1ccccc1N(C)C(=O)[C@H]1CC[C@H](NC(=O)c2cnn3cccnc23)CC1 [Example 178, N-{trans-4-[methyl(2-methylphenyl)carbamoyl]cyclohexyl}pyrazolo[1,5-a]pyrimidine-3-carboxamide]	560 nM	230 nM
C[C@]1(C(=O)Nc2ccc(F)cc2Cl)CC[C@H](NC(=O)c2cnn3cccnc23)CC1 [Example 179, N-{trans-4-[(2-chloro-4-fluorophenyl)carbamoyl]-4-methylcyclohexyl}pyrazolo[1,5-a]pyrimidine-3-carboxamide]	410 nM	330 nM

The next compounds have a lower IC50 [1] than those just listed; values first:

IC50 [1]	IC50 [2]	SMILES
120 nM	37 nM	O=C(N[C@H]1CC[C@H](C(=O)Nc2ccc(F)cc2Cl)CC1)c1[nH]cnc1C(=O)N1CC2(COC2)C1 [Example 14, N-{trans-4-[(2-chloro-4-fluorophenyl)carbamoyl]cyclohexyl}-4-(2-oxa-6-azaspiro[3.3]hept-6-ylcarbonyl)-1H-imidazole-5-carboxamide]
95 nM	19 nM	O=C(NCCN1CCOCC1)c1nc[nH]c1C(=O)N[C@H]1CC[C@H](C(=O)Nc2ccc(F)cc2Cl)CC1 [Example 13, N^5-{trans-4-[(2-chloro-4-fluorophenyl)carbamoyl]cyclohexyl}-N^4-[2-(morpholin-4-yl)ethyl]-1H-imidazole-4,5-dicarboxamide]
90 nM	240 nM	CNC(=O)c1nc[nH]c1C(=O)N[C@H]1CC[C@H](C(=O)Nc2cccnc2Cl)CC1 [Example 10, N^5-{trans-4-[(2-chloropyridin-3-yl)carbamoyl]cyclohexyl}-N^4-methyl-1H-imidazole-4,5-dicarboxamide]
89 nM	160 nM	COCCNC(=O)c1nc[nH]c1C(=O)N[C@H]1CC[C@H](C(=O)Nc2ccc(F)cc2Cl)CC1 [Example 19, N^5-{trans-4-[(2-chloro-4-fluorophenyl)carbamoyl]cyclohexyl}-N^4-(2-methoxyethyl)-1H-imidazole-4,5-dicarboxamide]
79 nM	83 nM	O=C(NCC(F)(F)F)c1nc[nH]c1C(=O)N[C@H]1CC[C@H](C(=O)Nc2ccc(F)cc2Cl)CC1 [Example 21, N^5-{trans-4-[(2-chloro-4-fluorophenyl)carbamoyl]cyclohexyl}-N^4-(2,2,2-trifluoroethyl)-1H-imidazole-4,5-dicarboxamide]
72 nM	7.2 nM	CC1CCN(CCNC(=O)c2nc[nH]c2C(=O)N[C@H]2CC[C@H](C(=O)Nc3ccc(F)cc3Cl)CC2)CC1 [Example 12, N^5-{trans-4-[(2-chloro-4-fluorophenyl)carbamoyl]cyclohexyl}-N^4-[2-(4-methylpiperidin-1-yl)ethyl]-1H-imidazole-4,5-dicarboxamide]
71 nM	42 nM	CCNC(=O)c1nc[nH]c1C(=O)N[C@H]1CC[C@H](C(=O)Nc2ccc(F)cc2Cl)CC1 [Example 15, N^5-{trans-4-[(2-chloro-4-fluorophenyl)carbamoyl]cyclohexyl}-N^4-ethyl-1H-imidazole-4,5-dicarboxamide]
71 nM	9.2 nM	O=C(N[C@H]1CC[C@H](C(=O)N(CC2CC2)c2ccc(F)cc2Cl)CC1)c1cnn2cccnc12 [Example 177, N-{trans-4-[(2-chloro-4-fluorophenyl)(cyclopropylmethyl)carbamoyl]cyclohexyl}pyrazolo[1,5-a]pyrimidine-3-carboxamide]
49 nM	90 nM	O=C(NC1CC1)c1nc[nH]c1C(=O)N[C@H]1CC[C@H](C(=O)Nc2ccc(F)cc2Cl)CC1 [Example 17, N^5-{trans-4-[(2-chloro-4-fluorophenyl)carbamoyl]cyclohexyl}-N^4-cyclopropyl-1H-imidazole-4,5-dicarboxamide]
33 nM	14 nM	Cc1cc(C)n2ncc(C(=O)N[C@H]3CC[C@H](C(=O)Nc4cnccc4Cl)CC3)c2n1 [Example 169, N-{trans-4-[(4-chloropyridin-3-yl)carbamoyl]cyclohexyl}-5,7-dimethylpyrazolo[1,5-a]pyrimidine-3-carboxamide]
0.23 nM	3.1 nM	O=C(NC1CCC2(CC1)CCN(c1cc(F)c(F)cc1Cl)C2=O)c1cnn2cccnc12 (single isomer, unassigned; isomer 1) [Example 168, N-[2-(2-chloro-4,5-difluorophenyl)-1-oxo-2-azaspiro[4.5]dec-8-yl]pyrazolo[1,5-a]pyrimidine-3-carboxamide (isomer 1)]
